Measurements taken from paper PMC6687188, “Novel lactate dehydrogenase inhibitors with in vivo efficacy against Cryptosporidium parvum” (PLoS Pathogens, 2019).

Target: recombinant CpLDH protein (Cryptosporidium parvum, UniProt Q9GT92, F198L/K295E/R251K)

Point of comparison: `Cc1c(C(=O)C/C(=N/NC(=O)CC#N)C(N)=O)[n+](=O)c2ccccc2n1[O-]` [NSC635542], “MEAN CpLDH INHIBITION (%)” value -10.72%. Against it:
- Cc1ccc(S(=O)(=O)SC/C=C/CSS(=O)(=O)c2ccc(C)cc2)cc1 [NSC624158] — higher, -8.09%
- O=S(=O)(O)SC/C=C\CSS(=O)(=O)O.[Na+] [NSC624161] — lower, -27.85%
- Cl.NCCSSCc1ccccc1CSSCCN [NSC624169] — lower, -25.23%
- CC12CC(Br)(Br)C(=O)C3C1CCCC32 [NSC624358] — lower, -23.30%
- Cc1[nH]c(=O)nc(N/N=C/c2ccc(Cl)cc2)c1C(=O)Nc1ccc(Cl)cc1 [NSC624947] — higher, -0.76%
- C=CCOC1OC(CO[Si](C)(C)C(C)(C)C)C(OCc2ccccc2)C(OCc2ccccc2)C1OCc1ccccc1 (stereo not shown) [NSC624953] — lower, -142.25%
- CCN(CC)CCCNc1ncc(C)c2[nH]c3ccncc3c12.O=C(O)/C=C\C(=O)O [NSC625331] — lower, -26.39%
- O=c1ncccn1C1OC(CO)C(O)C1F (stereo not shown) [NSC625355] — lower, -50.28%
- Fc1cccc(Cl)c1C1SCc2nc3ccccc3n21 (stereo not shown) [NSC625483] — lower, -18.24%
- Fc1cccc(F)c1C1SCc2nc3ccccc3n21 (stereo not shown) [NSC625487] — lower, -32.18%
- COc1ccc2cccc(C(=N)c3ccc(C)c4c3CCC4)c2c1 [NSC625590] — lower, -11.59%
- Cc1ccccc1NC(=O)/C=N/O [NSC625639] — lower, -116.71%
- Cc1cc([N+](=O)[O-])ccc1Nc1cccc(Cl)c1C [NSC625641] — higher, -6.68%
- C1CN(c2nnc(N3CCC3)nn2)C1 [NSC625748] — lower, -117.70%
- COc1ccccc1Cc1nc(-c2ccccc2)nn(C2OC(COC(C)=O)C(OC(C)=O)C(OC(C)=O)C2OC(C)=O)c1=S (stereo not shown) [NSC625873] — lower, -25.33%
- COC1OC(COCc2ccc(Cl)cc2)C(OCc2ccc(Cl)cc2)C1O (stereo not shown) [NSC626120] — higher, -0.60%
- COc1ccc(C2C(C)C(=O)C(C)C(c3ccc(OC)cc3)N2N=O)cc1 (stereo not shown) [NSC626734] — higher, -0.09%
- COc1cc2c3c(c1OC)-c1cc4c(cc1CC3(C#N)N(C(=O)c1ccccc1)CC2)OCO4 (stereo not shown) [NSC627666] — higher, -0.33%
- Cc1ccc(S(=O)(=O)c2ccccc2[N+](=O)[O-])cc1 [NSC627708] — lower, -13.84%
- N#CC1(C#N)C2C=CC(c3coc4cccc2c34)C1(C#N)C#N (stereo not shown) [NSC629301] — lower, -23.71%
- O=C1CCC(c2ccccc2)=NN1c1nc2ccccc2s1 [NSC629659] — lower, -32.05%
- O=C1c2ccccc2C(=O)c2nc(-c3ccccc3)c(-c3ccccc3)nc21 [NSC629713] — higher, -5.77%
- O=C(NCCCCCCCCNC(=O)c1cccc2ccccc12)c1cccc2ccccc12 [NSC629738] — higher, -0.22%
- CC[C@@]1(O)C(=O)OCc2c1cc1n(c2=O)Cc2cc3c(N)cccc3nc2-1 [NSC629971] — lower, -14.81%
- O=C(CCc1ccccc1)On1nnc2ccccc2c1=O [NSC630374] — lower, -20.24%
- Cn1cnc([N+](=O)[O-])c1Sc1nnnn1-c1ccccc1 [NSC631152] — lower, -45.89%
- Cn1cnc([N+](=O)[O-])c1Sc1nnc(-c2cccnc2)n1C [NSC631160] — lower, -15.11%
- O=C1c2ccccc2C(=O)c2sc(Nc3ccc(Cl)c(Cl)c3)nc21 [NSC631521] — higher, -0.12%
- O=C1c2ccccc2C(=O)c2sc(Nc3ccc(Cl)cc3)nc21 [NSC631529] — lower, -18.60%
- N#CC1=C(N)Oc2c(ccc3cccnc23)C1c1ccccc1 (stereo not shown) [NSC631583] — lower, -36.52%
- COc1ccc(Cc2nc3ccccc3s2)cc1OC [NSC632233] — higher, -7.14%
- Cc1ccc(/C=C2\CNC/C(=C\c3ccc(C)cc3)C2=O)cc1.Cl [NSC632839] — lower, -15.78%
- C=CC(=O)N1C/C(=C\c2ccccc2)C(=O)/C(=C/c2ccccc2)C1 [NSC632841] — lower, -21.11%
- O=[N+]([O-])c1ccccc1S(=O)(=O)c1ccccc1[N+](=O)[O-] [NSC633001] — lower, -15.73%
- O=C(NC(=O)c1c(Cl)nc2sccn12)Nc1ccc(Cl)cc1 [NSC633209] — lower, -19.92%
- O=C1C(c2cnc3ccccc3n2)=C(O)c2ccccc21 [NSC634224] — lower, -37.07%
- O=C(CC(=O)c1ccccc1)CC(O)(c1ccccc1)c1ccccc1 [NSC634232] — lower, -33.26%
- Cc1c(Cl)cccc1NC(=O)CC1Sc2ccccc2NC1=O (stereo not shown) [NSC634396] — lower, -17.78%
- CCOC(=O)CCn1ncc(Cl)c(Cl)c1=O [NSC634471] — lower, -23.23%
- COC(=O)C1=CC(=O)C(C(=O)Nc2ccc(OC)cc2)C(c2ccccc2)O1 (stereo not shown) [NSC634473] — lower, -29.85%
- CCc1cccc(CC)c1NC(=O)C(C#N)C1=C(Cl)C(=O)c2ccccc2C1=O (stereo not shown) [NSC634503] — higher, -5.79%
- Cn1c(=O)c2nc3sc4c(n3c2n(C)c1=O)C(=O)c1ccccc1C4=O [NSC634568] — higher, -8.97%
- O=C1C=CC(CC(=O)c2ccc3ccccc3c2)O1 (stereo not shown) [NSC634650] — lower, -31.23%
- CC(=O)/C(=C\c1cccc([N+](=O)[O-])c1)C(=O)Nc1ccccc1C [NSC634658] — lower, -26.76%
- O=S1(=O)OCCOS(=O)(=O)C1Cc1ccccc1 [NSC634863] — lower, -18.12%
- [O-][S+]1c2ccccc2N=C(c2cccc3ccccc23)CC1c1cccc2ccccc12 (stereo not shown) [NSC634926] — higher, -0.08%
- CC1=C(C(=O)NCc2ccccc2)C(c2ccccc2O)C(C(=O)NCc2ccccc2)=C(C)N1 [NSC634928] — lower, -21.25%
- C/C(NNC(=O)c1ccccc1O)=C1\C=Nc2ccccc2S1 [NSC635121] — higher, 0.03%
- COC(=O)c1[nH]c(=S)[nH]c(=O)c1-c1ccc(Cl)cc1 [NSC635140] — lower, -15.60%
- O=C(c1ccccc1)C1OC12C(=O)Nc1c(Cl)cc(Cl)cc12 (stereo not shown) [NSC635306] — lower, -37.53%
- O=C(c1ccccc1)C(c1ccccc1)C1(O)C(=O)Nc2c(Cl)cc(Cl)cc21 (stereo not shown) [NSC635312] — lower, -41.63%
- Cc1c(Cl)ccc2c1NC(=O)C2(O)C(C(=O)c1ccccc1)c1ccccc1 (stereo not shown) [NSC635321] — lower, -39.51%
- O=C(CC1(O)C(=O)Nc2c(Cl)cc(Cl)cc21)c1ccc([N+](=O)[O-])cc1 (stereo not shown) [NSC635326] — lower, -38.78%
- O=C(CC1(O)C(=O)Nc2c(Cl)cc(Cl)cc21)c1cccc2ccccc12 (stereo not shown) [NSC635328] — lower, -47.14%
- COC(=O)/C(=N\NC(=O)c1ccccc1O)C(C#N)c1ccccc1 (stereo not shown) [NSC635337] — lower, -28.29%
- CN1CCN(CCSC2Cc3cc(Cl)ccc3Sc3ccccc32)CC1 (stereo not shown) [NSC635366] — lower, -12.08%
- O=C(N=Nc1c(O)[nH]c2ccccc12)c1ccccc1O [NSC635404] — lower, -38.57%
- Cc1cc(Cl)cc2c1NC(=O)C2(O)C(C(=O)c1ccccc1)c1ccccc1 (stereo not shown) [NSC635435] — lower, -63.48%
- O=C(CC1(O)C(=O)Nc2c(Cl)ccc(Cl)c21)c1ccc(Cl)cc1Cl (stereo not shown) [NSC635436] — lower, -79.39%
- O=C(CC1(O)C(=O)Nc2c(Cl)ccc(Cl)c21)c1ccc(Cl)cc1 (stereo not shown) [NSC635437] — higher, -7.08%
- O=C(CC1(O)C(=O)Nc2c(Cl)cc(Cl)cc21)c1cccc([N+](=O)[O-])c1 (stereo not shown) [NSC635438] — lower, -43.53%
- CC(=O)/C(C)=N/NC(=O)c1ccccc1O [NSC635441] — lower, -52.88%
- NS(=O)(=O)c1nc2nc[nH]c(=O)c2[nH]1 [NSC635448] — higher, -5.65%
- Cc1c(C(=O)C/C(=N\O)C(=O)Nc2cc(Cl)c(Cl)cc2Cl)[n+](=O)c2ccccc2n1[O-] [NSC635544] — lower, -233.40%
- O=[N+]([O-])c1cc(-c2nc(=S)[nH][nH]2)ccc1O [NSC635563] — lower, -59.68%
- Cc1ccccc1OCC(COC(=O)Nc1ccccc1)OC(=O)Nc1ccccc1 (stereo not shown) [NSC635824] — higher, -3.02%
- COC(=O)C(=O)C(C(=O)Nc1cccc(C)c1C)C1Sc2ccccc2NC1=O (stereo not shown) [NSC635833] — lower, -26.59%
- CC1=NC(C(C)C)C(=O)O1 (stereo not shown) [NSC635968] — higher, -7.14%
- CC(C)(C)c1ccc(OC2CCO2)cc1 (stereo not shown) [NSC635975] — lower, -52.75%
- CC1CCCC(C(=O)/C(=C/c2cccc(Cl)c2)C(=O)C(=O)O)C1 (stereo not shown) [NSC636084] — lower, -20.56%
- Cc1ccc(NC(=O)C(=O)CC(=O)c2ccccc2)cc1C [NSC636126] — lower, -16.52%
- Cc1ccccc1NC(=O)C(=O)C(C#N)c1ccccc1C (stereo not shown) [NSC636132] — lower, -58.66%
- O=C(/C=C/c1c(O)ccc2ccccc12)c1cccc(O)c1 [NSC636786] — lower, -25.27%
- COc1ccc(C2=Nc3ccccc3SC(C)C2)cc1 (stereo not shown) [NSC636817] — higher, -5.00%
- NC(=Nc1nc(-c2ccccn2)cc2ccccc12)c1ccccn1 [NSC637578] — lower, -28.84%
- CCOc1ccccc1NC(=O)CC1Sc2ccccc2NC1=O (stereo not shown) [NSC637680] — lower, -16.33%
- O=C1C=C(Nc2cccnc2)c2ccccc2C1=O [NSC637729] — lower, -66.55%
- O=C1C=C(NCCc2ccccc2)c2ccccc2C1=O [NSC637731] — lower, -17.56%
- CC(=O)SC(SC(C)=O)SC(C)=O [NSC637833] — lower, -64.71%
- N#CCCN(c1ccc(C=O)cc1)S(=O)(=O)c1ccccc1 [NSC637914] — lower, -47.07%
- N#CCCN(CCC#N)c1ccc(/C=C2\N=C(c3cc([N+](=O)[O-])ccc3Cl)OC2=O)cc1 [NSC637916] — lower, -14.05%
- CCN(CC)CCNc1ccc2nc(C)n3c4ccc(OC)cc4c(=O)c1c23 [NSC637993] — lower, -46.33%
- O=C1/C(=C\c2ccc(Cl)c(Cl)c2)CN(C(=O)CCN2CCOCC2)C/C1=C\c1ccc(Cl)c(Cl)c1 [NSC638646] — lower, -17.60%
- CCOC(=O)Nc1nc2ccc(Cn3cccc3)cc2[nH]1 [NSC639754] — higher, -8.79%
